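Cultured in 96-well plates, cells were exposed to test compound for 48 hours across five concentrations. Here, GI50 denotes the concentration required for 50% inhibition of growth.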 Active and inactive are the calls of the source. Rule as the data show it: active = GI50 up to about 1.1 µM and inactive = higher.
Assays:
Test in all cases: inhibition of tumour cell growth, NCI panel, 48 h
SR = system: SR
NCI-H522 = system: NCI-H522
OVCAR-8 = system: OVCAR-8
SF-295 = system: SF-295
SF-268 = system: SF-268
ACHN = system: ACHN
K562 = system: K562
RXF 393 = system: RXF 393
NCI-H23 = system: NCI-H23
LOX IMVI = system: LOX IMVI
COLO 205 = system: COLO 205
SK-MEL-28 = system: SK-MEL-28
KM12 = system: KM12
OVCAR-5 = system: OVCAR-5
M14 = system: M14
SK-MEL-2 = system: SK-MEL-2
HCT-116 = system: HCT-116
MDA-MB-231 = system: MDA-MB-231
T47D = system: T47D
Hs-578T = system: Hs-578T

Measured: GI50

CCCCCCCCCCCC(=O)OCCOCCOCCOCCOCCOC(=O)CCCCCCCCCCC
inactive: SR > 100 µM | NCI-H522 > 100 µM | OVCAR-8 > 100 µM | SF-295 > 100 µM | SF-268 > 100 µM | ACHN > 100 µM | K562 > 100 µM | RXF 393 > 100 µM | NCI-H23 > 100 µM | LOX IMVI > 100 µM | COLO 205 > 100 µM | SK-MEL-28 > 100 µM | KM12 > 100 µM | OVCAR-5 > 100 µM | M14 > 100 µM | SK-MEL-2 > 100 µM | HCT-116 > 100 µM

COC1CC(OS(=O)(=O)c2ccc(C)cc2)C(OC(=O)c2ccccc2)C(C)O1 (stereo not drawn)
inactive: SR > 10 µM | NCI-H522 > 10 µM | OVCAR-8 > 10 µM | SF-295 > 100 µM | SF-268 > 100 µM | ACHN > 10 µM | K562 > 10 µM | RXF 393 88.5 µM | NCI-H23 > 10 µM | LOX IMVI > 10 µM | COLO 205 > 10 µM | SK-MEL-28 > 10 µM | KM12 > 10 µM | OVCAR-5 > 10 µM | M14 > 10 µM | SK-MEL-2 > 10 µM | HCT-116 > 10 µM

OCC1NC(COC2OC(CO)C(O)C(O)C2O)C(O)C(O)C1O (stereo not drawn)
inactive: SR > 100 µM | NCI-H522 > 100 µM | OVCAR-8 > 100 µM | SF-295 > 100 µM | SF-268 > 100 µM | MDA-MB-231 > 100 µM | ACHN > 100 µM | K562 > 100 µM | RXF 393 > 100 µM | NCI-H23 > 100 µM | COLO 205 > 100 µM | SK-MEL-28 > 100 µM | KM12 > 100 µM | OVCAR-5 > 100 µM | M14 > 100 µM | SK-MEL-2 > 100 µM | HCT-116 > 100 µM | T47D > 100 µM

COc1ccc(NC(=S)C#N)cc1
inactive: SR > 100 µM | OVCAR-8 > 100 µM | SF-295 > 100 µM | SF-268 > 100 µM | MDA-MB-231 > 100 µM | ACHN > 100 µM | K562 49.3 µM | RXF 393 > 100 µM | NCI-H23 > 100 µM | LOX IMVI > 100 µM | COLO 205 > 100 µM | SK-MEL-28 > 100 µM | KM12 > 100 µM | OVCAR-5 > 100 µM | M14 > 100 µM | SK-MEL-2 > 100 µM | HCT-116 > 100 µM | T47D 85.7 µM

O=C1CSC(c2c[nH]c3ccccc23)N1c1cccc([N+](=O)[O-])c1 (stereo not drawn)
inactive: SR > 100 µM | NCI-H522 95.3 µM | OVCAR-8 > 100 µM | SF-295 66.7 µM | SF-268 > 100 µM | MDA-MB-231 56.2 µM | K562 76.2 µM | RXF 393 > 100 µM | NCI-H23 > 100 µM | LOX IMVI 93.5 µM | COLO 205 > 100 µM | SK-MEL-28 > 100 µM | KM12 24.4 µM | OVCAR-5 > 100 µM | M14 > 100 µM | HCT-116 73.1 µM | T47D > 100 µM

Cc1ccc(/C=c2\cc3oc(=O)c4cccc(c4-3)c2=O)cc1
inactive: SR 34.1 µM | NCI-H522 38.1 µM | OVCAR-8 97.7 µM | SF-295 > 100 µM | SF-268 59.3 µM | MDA-MB-231 > 100 µM | ACHN > 100 µM | K562 33.3 µM | NCI-H23 > 100 µM | LOX IMVI 61.4 µM | COLO 205 > 100 µM | SK-MEL-28 > 100 µM | OVCAR-5 > 100 µM | M14 > 100 µM | SK-MEL-2 > 100 µM | HCT-116 > 100 µM | T47D > 100 µM

CC(=O)NC1(C)CCC(C(C)(C)NC(C)=O)CC1 (stereo not drawn)
inactive: Hs-578T > 100 µM | SR > 100 µM | OVCAR-8 > 100 µM | SF-295 > 100 µM | SF-268 > 100 µM | MDA-MB-231 > 100 µM | ACHN > 100 µM | K562 > 100 µM | RXF 393 > 100 µM | NCI-H23 > 100 µM | LOX IMVI > 100 µM | COLO 205 > 100 µM | SK-MEL-28 > 100 µM | KM12 > 100 µM | OVCAR-5 > 100 µM | M14 > 100 µM | HCT-116 > 100 µM

CCc1cccc(CC)c1NC(=O)CC1SC(N)=NC1=O (stereo not drawn)
inactive: SR 97.5 µM | NCI-H522 > 100 µM | OVCAR-8 > 100 µM | SF-295 > 100 µM | SF-268 > 100 µM | ACHN > 100 µM | K562 > 100 µM | RXF 393 > 100 µM | NCI-H23 > 100 µM | LOX IMVI > 100 µM | COLO 205 > 100 µM | SK-MEL-28 > 100 µM | KM12 > 100 µM | OVCAR-5 > 100 µM | M14 > 100 µM | SK-MEL-2 > 100 µM | HCT-116 > 100 µM

Reference: ChEMBL document CHEMBL1201862, “PubChem BioAssay data set” (2004)
